Measured values reported in ChEMBL document CHEMBL3580543, “C-Geranylated Flavanones from Paulownia tomentosa Fruits as Potential Anti-inflammatory Compounds Acting via Inhibition of TNF-α Production” (J Nat Prod, 2015).
The source made the active and inactive calls. The calls are words filed in the database; no cut-off is given here.

Key:
THP-1 [1] = test: Cytotoxicity against human THP1 cells assessed as cell viability after 24 hrs by WST assay; assay type: cell-based; details: THP-1, 24 h
THP-1 [2] = test: Cytotoxicity against human THP1 cells at 2 uM after 24 hrs by WST assay; assay type: cell-based; details: thp-1, 24 h
THP-1 [3] = test: Antiinflammatory activity in differentiated human THP1 cells assessed as inhibition of LPS-induced ROS level at 2 uM pretreated for 1 hr measured after 24 hrs of LPS stimulation by fluorescence assay; assay type: functional, cell-based
THP-1 [4] = test: Antiinflammatory activity in differentiated human THP1 cells assessed as inhibition of LPS-induced NFkappaB activation at 2 uM pretreated for 1 hr measured after 4 hrs of LPS stimulation by DAPI-staining based immunohistochemical analysis; assay type: functional, cell-based
THP-1 [5] = test: Antiinflammatory activity in differentiated human THP1 cells assessed as inhibition of LPS-induced TNFalpha secretion at 2 uM after 24 hrs by ELISA; assay type: functional, cell-based
THP-1 [6] = test: Antiinflammatory activity in differentiated human THP1 cells assessed as inhibition of LPS-induced IkappaB degradation at 2 uM pretreated for 1 hr measured after 30 mins of LPS stimulation by Western blot analysis; assay type: functional, cell-based
THP-1 [7] = test: Antiinflammatory activity in differentiated human THP1 cells assessed as inhibition of LPS-induced TNFalpha mRNA expression at 2 uM after 4 hrs by RT-qPCR analysis; assay type: functional, cell-based
THP-1 [8] = test: Cytotoxicity against human THP1 cells assessed as increase in ROS level at 2 uM; assay type: cell-based; details: thp-1, 2 µM

| SMILES | IC50 (THP-1 [1]) | Activity (THP-1 [2]) | Activity (THP-1 [3]) | Activity (THP-1 [4]) | Activity (THP-1 [5]) | Activity (THP-1 [6]) | Activity (THP-1 [7]) | Activity (THP-1 [8]) |
| --- | --- | --- | --- | --- | --- | --- | --- | --- |
| COc1cc(C2CC(=O)c3c(cc(O)c(C/C=C(\C)CCC(O)C(C)(C)O)c3O)O2)cc(OC)c1O (stereo not drawn) | > 10 µM | Non-toxic | – | – | – | – | – | – |
| COc1cc([C@@H]2CC(=O)c3c(cc(O)c(C/C=C(\C)CCC=C(C)C)c3O)O2)ccc1O | < 10 µM | Non-toxic | inactive | Active | Active | Active | Active | – |
| COc1cc([C@@H]2CC(=O)c3c(cc(O)c(C/C=C(\C)CCC=C(C)C)c3O)O2)cc(O)c1OC | < 10 µM | Non-toxic | – | Active | – | Active | Active | – |
| CC(C)=CCCC(C)(O)C1Cc2c(cc3c(c2O)C(=O)CC(c2ccc(O)cc2)O3)O1 (stereo not drawn) | > 10 µM | Non-toxic | – | – | – | – | – | – |
| COc1cc([C@@H]2CC(=O)c3c(O)cc(O)cc3O2)cc(OC)c1OC | > 10 µM | Non-toxic | – | – | – | – | – | – |
| COc1cc([C@@H]2CC(=O)c3c(cc(O)c(C/C=C(\C)CCC=C(C)C)c3O)O2)cc(OC)c1O | < 10 µM | Non-toxic | – | – | Active | – | – | – |
| COc1cc([C@@H]2CC(=O)c3c(cc(O)c(C/C=C(\C)C/C=C/C(C)(C)O)c3O)O2)ccc1O [TOMENTODIPLACONE B] | > 10 µM | Non-toxic | – | – | Active | – | – | – |
| O=C1C[C@@H](c2ccc(O)c(O)c2)Oc2cc(O)cc(O)c21 [ERIODICTYOL] | > 10 µM | Non-toxic | – | – | – | – | – | – |
| C/C(=C\Cc1c(O)cc2c(c1O)C(=O)C[C@@H](c1ccc(O)cc1)O2)CCC(O)C(C)(C)O (stereo partly drawn) | > 10 µM | Non-toxic | – | – | – | – | – | – |
| COc1cc([C@@H]2CC(=O)c3c(cc4c(c3O)CC(O)C(C)(CCC=C(C)C)O4)O2)ccc1O (stereo partly drawn) | < 10 µM | Non-toxic | inactive | Active | Active | Active | Active | Toxic |
| CC(C)=CCC/C(C)=C/Cc1c(O)cc2c(c1O)C(=O)C[C@@H](c1ccc(O)c(O)c1)O2 [NYMPHAEOL A] | > 10 µM | Non-toxic | inactive | Active | – | Active | Active | – |
| CC(C)=CCCC1(C)C=Cc2c(cc3c(c2O)C(=O)C[C@@H](c2cc(O)cc(O)c2)O3)O1 (stereo partly drawn) | > 10 µM | Non-toxic | – | – | – | – | – | – |
| COc1cc([C@H]2Oc3cc(O)c(C/C=C(\C)CCC=C(C)C)c(O)c3C(=O)[C@@H]2O)ccc1O | < 10 µM | Non-toxic | – | – | Active | – | – | – |
| COc1cc(C2CC(=O)c3c(cc(O)c(C/C=C(\C)CCC(O)C(C)(C)OC)c3O)O2)cc(OC)c1O (stereo not drawn) | > 10 µM | Non-toxic | – | – | – | – | – | – |
| CC(C)=CCC/C(C)=C/Cc1c(O)cc2c(c1O)C(=O)C[C@@H](c1ccc(O)cc1)O2 [BONANNIONE A] | < 10 µM | Non-toxic | – | – | – | – | – | – |
| C=C(CCC=C(C)C)C(O)Cc1c(O)cc2c(c1O)C(=O)C[C@@H](c1ccc(O)c(OC)c1)O2 (stereo partly drawn) | < 6.5 µM | Non-toxic | – | – | – | – | – | – |
| COc1cc([C@@H]2CC(=O)c3c(cc(O)c(C/C=C(\C)CCC(O)C(C)(C)OC)c3O)O2)ccc1O (stereo partly drawn) | > 10 µM | Non-toxic | – | – | – | – | – | – |
| C=C(CCC=C(C)C)C(O)Cc1c(O)cc2c(c1O)C(=O)C[C@@H](c1ccc(O)cc1)O2 (stereo partly drawn) | > 11.4 µM | Non-toxic | – | Active | Active | Active | Active | Toxic |
| C=C(C)C1CCC(C)(C(O)Cc2c(O)cc3c(c2O)C(=O)C[C@@H](c2ccc(O)c(OC)c2)O3)O1 (stereo partly drawn) | > 10 µM | Non-toxic | – | – | – | – | – | – |
| COC(C)(C)C(O)CC/C(C)=C/Cc1c(O)cc2c(c1O)C(=O)C[C@@H](c1ccc(O)cc1)O2 (stereo partly drawn) | > 10 µM | Non-toxic | – | – | – | – | – | – |
| COc1cc([C@H]2Oc3cc4c(c(O)c3C(=O)[C@@H]2O)C=CC(C)(CCC=C(C)C)O4)ccc1O (stereo partly drawn) | > 10 µM | Non-toxic | – | – | Active | – | – | – |
| O=C1C[C@@H](c2ccc(O)cc2)Oc2cc(O)cc(O)c21 [NARINGENIN] | > 10 µM | Non-toxic | – | – | – | – | – | – |
| COc1cc([C@@H]2CC(=O)c3c(cc4c(c3O)CC(C(C)(O)CCC=C(C)C)O4)O2)ccc1O (stereo partly drawn) | < 10 µM | Non-toxic | – | – | – | – | – | – |
| COc1cc([C@@H]2CC(=O)c3c(cc(O)c(CC=C(C)C)c3O)O2)ccc1O | > 10 µM | Non-toxic | – | – | – | – | – | – |
| COc1ccc([C@@H]2CC(=O)c3c(cc(O)c(C/C=C(\C)CCC=C(C)C)c3O)O2)cc1OC | < 10 µM | Non-toxic | – | – | Active | – | – | – |
